Test [1] has as its target T1, HCV polymerase (NS5B) type 1a (Hepatitis C virus genotype 1a, UniProt P26664).
T1 construct: made in house; host or cells: Escherichia coli (by the 'similar method' of the 1b enzyme)
The experiment in a line: Assay of enzyme (HCV polymerase) inhibitory activity, type 1a enzyme. To be noted: HCV polymerase inhibitory activity (IC50), 1a, type 1a enzyme 1.5 μg/ml, 25° C., 60 min. It is filed as biochemical, HCV type 1a (cloned from the blood of patients). An excerpt: (§1) The evaluation of the HCV polymerase inhibitory activity of the compound of the present invention is explained in the following. This polymerase is an enzyme coded for by the non-structural protein region called NS5B on the genome RNA of HCV.
(§2) i) Preparation of Enzyme (HCV Polymerase)
(§3) Using, as a template, a cDNA clone corresponding to the full length genome RNA of HCV BK strain (type 1b) obtained from the blood of a patient with hepatitis C, a region encoding NS5B (J Virol 1991 March, 65(3), 1105-13, 544 amino acids after deletion of 47 amino acids on the C-terminal) was amplified by PCR. The objective gene was prepared by adding a 6 His tag {base pair encoding 6 continuous histidine (His)} to the 3′ end thereof and transformed to Escherichia coli. The Escherichia coli capable of producing the objective protein was cultured. The obtained cells were suspended in a buffer solution and crushed in a microfluidizer. The supernatant was obtained by centrifugation and applied to various column chromatographys {mono-S, Sephacryl S-200 (Pharmacia)}, inclusive of metal chelate chromatography, to give a standard enzyme product.
Standard enzyme products for type 1a (cloned from the blood of patients) were also obtained by a similar method.
(§4) ii) Synthesis of Substrate RNA
(§5) Using a synthetic primer designed based on the sequence of HCV genomic 3′ untranslated region, a DNA fragment (148 bp) containing polyU and 3′X sequence was entirely synthesized and cloned into plasmid pBluescript SK II(+) (Stratagene). The cDNA encoding full length NS5B, which was prepared in i) above, was digested with restriction enzyme KpnI to give a cDNA fragment containing the nucleotide sequence of from the restriction enzyme cleavage site to the termination codon. This cDNA fragment was inserted into the upstream of 3′ untranslated region of the DNA in pBluescript SK II(+) and ligated. The about 450 bp inserted DNA sequence was used as a template in the preparation of substrate RNA. This plasmid was cleaved immediately after the 3′X sequence, linearized and purified by phenol-chloroform treatment and ethanol precipitation to give DNA.
(§6) RNA was synthesized (37° C., 4 hr) by run-off method using this purified DNA as a template, a promoter of pBluescript SK II(+), MEGAscript RNA synthesis kit (Ambion) and T7 RNA polymerase. DNase I was added and the mixture was incubated for 1 hr. The template DNA was removed by decomposition to give a crude RNA product. This crude product was treated with phenol-chloroform and purified by ethanol precipitation to give the objective substrate RNA.
(§7) This RNA was applied to urea denaturation polyacrylamide gel electrophoresis to confirm the quality thereof and preserved at −80° C.
(§8) iii) Assay of Enzyme (HCV Polymerase) inhibitory activity
(§9) A test substance (compound of the present invention) and a reaction mixture (30 μl) having the following composition were reacted at 25° C. for 60 min.
(§10) 10% Trichloroacetic acid and 1% sodium pyrophosphate solution (150 μl) at 4° C. was added to this reaction mixture to stop the reaction. The reaction mixture was left standing at 4° C. for 15 min to insolubilize RNA. This RNA was trapped on a glass filter (PerkinElmer, GF/B) upon filtration by suction. This filter was washed with a solution containing 1% trichloroacetic acid and 0.1% sodium pyrophosphate, washed with 90% ethanol and dried. A liquid scintillation cocktail (PerkinElmer) was added and the radioactivity of RNA synthesized by the enzyme reaction was measured on a liquid scintillation counter.
The HCV polymerase inhibitory activity (IC50) of the compound of the present invention was calculated from the values of radioactivity of the enzyme reaction with and without the test substance. […]

The target of test [2] is T2, HCV polymerase (NS5B) type 1b (Hepatitis C virus genotype 1b, UniProt P26663).
T2 construct: a region encoding NS5B (J Virol 1991 March, 65(3), 1105-13, 544 amino acids after deletion of 47 amino acids on the C-terminal); 6xHis (C); made in house; host or cells: Escherichia coli
The experiment in a line: Assay of enzyme (HCV polymerase) inhibitory activity, type 1b enzyme. As to conditions: HCV polymerase inhibitory activity (IC50), 1b, type 1b enzyme 0.5 μg/ml, 25° C., 60 min. The test is classed as biochemical, HCV BK strain (type 1b).
Text: as §1, §2, §3, §4, §5, §6, §7, §8, §9, §10
The HCV polymerase inhibitory activity (IC50) of the compound of the present invention was calculated from the values of radioactivity of the enzyme reaction with and without the test substance.
Reaction mixture: HCV polymerase (type 1b 0.5 μg/ml or type 1a 1.5 μg/m) obtained in i), substrate RNA (5 μg/ml) obtained in ii), ATP (50 μM), GTP (50 μM), CTP (50 μM), UTP (2 μM), [5,6-^3H]UTP (30-60 Ci/mmol (Amersham Biosciences), 1 μCi) 20 mM Tris-HCl (pH 7.5), EDTA (1 mM), MgCl2 (5 mM), NaCl (50 mM), DTT (1 mM), BSA (0.01%)

A value given as a limit tells only on which side of the number the result lay.

In the case of `CC(=O)N1CCN(S(=O)(=O)c2ccc(C(C)C)cc2)[C@@H](C(=O)NCc2ccc(C(F)(F)F)cc2)C1` [Example 18, (R)-4-acetyl-1-(4-isopropyl-benzenesulfonyl)-piperazine-2-carboxylic acid 4-trifluoromethyl-benzylamide], the IC50 in test [1] and in test [2] was 100 to 1000 nM in each case.

On to `CC(=O)N1CCN(S(=O)(=O)c2ccc(C(C)C)cc2)[C@H](C(=O)NCc2ccc(C(F)(F)F)cc2)C1` [Example 19, (S)-4-acetyl-1-(4-isopropyl-benzenesulfonyl)-piperazine-2-carboxylic acid 4-trifluoromethyl-benzylamide], for which the IC50 in test [1] and in test [2] was above 1000 nM in each case.

Turning to `CC(=O)N1CCN(S(=O)(=O)c2ccc(Cl)cc2)C(C(=O)NCc2ccc(C(F)(F)F)cc2)C1` (centres unmarked) [Example 20, 4-acetyl-1-(4-chloro-benzenesulfonyl)-piperazine-2-carboxylic acid 4-trifluoromethyl-benzylamide], the half-maximal inhibitory concentration (IC50) in test [1] and in test [2] was above 1000 nM each time.

As for `CC(=O)N1CCN(S(=O)(=O)c2ccccc2Cl)C(C(=O)NCc2ccc(C(F)(F)F)cc2)C1` (centres unmarked) [Example 21, 4-acetyl-1-(2-chloro-benzenesulfonyl)-piperazine-2-carboxylic acid 4-trifluoromethyl-benzylamide], the IC50 in test [1] and in test [2] was above 1000 nM throughout.

Turning to `CC(=O)N1CCN(S(=O)(=O)c2ccc(Br)cc2)C(C(=O)NCc2ccc(C(F)(F)F)cc2)C1` (centres unmarked) [Example 22, 4-acetyl-1-(4-bromo-benzenesulfonyl)-piperazine-2-carboxylic acid 4-trifluoromethyl-benzylamide], the IC50 in test [1] and in test [2] was above 1000 nM in each case.

In the case of `CC(=O)N1CCN(S(=O)(=O)c2ccc(Br)s2)C(C(=O)NCc2ccc(C(F)(F)F)cc2)C1` (centres unmarked) [Example 23, 4-acetyl-1-(5-bromo-thiophene-2-sulfonyl)-piperazine-2-carboxylic acid 4-trifluoromethyl-benzylamide], the 50% inhibitory concentration (IC50) in test [1] and in test [2] was above 1000 nM in each case.

On to `CC(=O)N1CCN(S(=O)(=O)c2ccccc2)C(C(=O)NCc2ccc(C(F)(F)F)cc2)C1` (centres unmarked) [Example 24, 4-acetyl-1-benzenesulfonyl-piperazine-2-carboxylic acid 4-trifluoromethyl-benzylamide], for which the IC50 in test [1] and in test [2] was above 1000 nM throughout.

For `CC(=O)N1CCN(S(=O)(=O)c2ccc(Oc3ccc(Cl)cc3)cc2)C(C(=O)NCc2ccc(C(F)(F)F)cc2)C1` (centres unmarked) [Example 25, 4-acetyl-1-[4-(4-chloro-phenoxy)-benzenesulfonyl]-piperazine-2-carboxylic acid 4-trifluoromethyl-benzylamide], the 50% inhibitory concentration (IC50) in test [1] and in test [2] was above 1000 nM throughout.

As to `CC(=O)N1CCN(S(=O)(=O)c2ccc(-c3ccc(Cl)cc3)cc2)C(C(=O)NCc2ccc(C(F)(F)F)cc2)C1` (centres unmarked) [Example 26, 4-acetyl-1-(4′-chloro-biphenyl-4-sulfonyl)-piperazine-2-carboxylic acid 4-trifluoromethyl-benzylamide], the 50% inhibitory concentration (IC50) in test [1] and in test [2] was above 1000 nM in each case.

For the compound `CC(=O)N1CCN(S(=O)(=O)c2cc(C)cc(C)c2Oc2ccc(C#N)cc2)C(C(=O)NCc2ccc(C(F)(F)F)cc2)C1` (centres unmarked) [Example 27, 4-acetyl-1-[2-(4-cyano-phenoxy)-3,5-dimethyl-benzenesulfonyl]-piperazine-2-carboxylic acid 4-trifluoromethyl-benzylamide], the half-inhibitory concentration (IC50) in test [1] and in test [2] was above 1000 nM in each case.

In the case of `CC(=O)N1CCN(S(=O)(=O)c2ccc(-c3ccc(Cl)cc3)s2)C(C(=O)NCc2ccc(C(F)(F)F)cc2)C1` (centres unmarked) [Example 28, 4-acetyl-1-[5-(4-chloro-phenyl)-thiophene-2-sulfonyl]-piperazine-2-carboxylic acid 4-trifluoromethyl-benzylamide], the IC50 in test [1] and in test [2] was above 1000 nM in each case.

As for `CC(=O)N1CCN(S(=O)(=O)c2cccc(Cl)c2)C(C(=O)NCc2ccc(C(F)(F)F)cc2)C1` (centres unmarked) [Example 29, 4-acetyl-1-(3-chloro-benzenesulfonyl)-piperazine-2-carboxylic acid 4-trifluoromethyl-benzylamide], the IC50 in test [1] and in test [2] was above 1000 nM each time.

In the case of `CC(=O)N1CCN(S(=O)(=O)c2ccc(C(C)(C)C)cc2)C(C(=O)NCc2ccc(C(F)(F)F)cc2)C1` (centres unmarked) [Example 30, 4-acetyl-1-(4-tert-butyl-benzenesulfonyl)-piperazine-2-carboxylic acid 4-trifluoromethyl-benzylamide], the concentration for half-maximal inhibition (IC50) in test [1] and in test [2] was above 1000 nM in each case.

For `CC(=O)c1ccc(S(=O)(=O)N2CCN(C(C)=O)CC2C(=O)NCc2ccc(C(F)(F)F)cc2)cc1` (centres unmarked) [Example 31, 4-acetyl-1-(4-acetyl-benzenesulfonyl)-piperazine-2-carboxylic acid 4-trifluoromethyl-benzylamide], the IC50 in test [1] and in test [2] was above 1000 nM throughout.

As to `COC(=O)N1CCN(S(=O)(=O)c2ccc(C(C)C)cc2)C(C(=O)NCc2ccc(C(F)(F)F)cc2)C1` (centres unmarked) [Example 32, 4-(4-isopropyl-benzenesulfonyl)-3-(4-trifluoromethyl-benzylcarbamoyl)-piperazine-1-carboxylic acid methyl ester], the IC50 in test [1] and in test [2] was above 1000 nM throughout.

For the compound `CC(=O)N1CCN(S(=O)(=O)c2ccc(C(C)C)cc2)C(C(=O)NCc2cccc(Cl)c2)C1` (centres unmarked) [Example 33, 4-acetyl-1-(4-isopropyl-benzenesulfonyl)-piperazine-2-carboxylic acid 3-chloro-benzylamide], the IC50 in test [1] and in test [2] was above 1000 nM in each case.

Consider `CC(=O)N1CCN(S(=O)(=O)c2ccc(C(C)C)cc2)C(C(=O)NCc2ccccc2Cl)C1` (centres unmarked) [Example 34, 4-acetyl-1-(4-isopropyl-benzenesulfonyl)-piperazine-2-carboxylic acid 2-chloro-benzylamide], for which the IC50 in test [1] and in test [2] was above 1000 nM throughout.

For the compound `CC(=O)N1CCN(S(=O)(=O)c2ccc(C(C)C)cc2)C(C(=O)NCc2ccc(Cl)cc2)C1` (centres unmarked) [Example 35, 4-acetyl-1-(4-isopropyl-benzenesulfonyl)-piperazine-2-carboxylic acid 4-chloro-benzylamide], the IC50 in test [1] and in test [2] was above 1000 nM each time.

Consider `CC(=O)N1CCN(S(=O)(=O)c2ccc(C(C)C)cc2)C(C(=O)NCc2ccc(-c3ccccc3)cc2)C1` (centres unmarked) [Example 36, 4-acetyl-1-(4-isopropyl-benzenesulfonyl)-piperazine-2-carboxylic acid (biphenyl-4-ylmethyl)-amide], for which the figures for the half-inhibitory concentration (IC50) in test [1] and in test [2] were 100 to 1000 nM and above 1000 nM, respectively.

A word on the IC50: it is the midpoint of a concentration-inhibition curve. Read a high IC50 as lower potency.

Source of the values: patent US8017612B2, “Piperazine compound and use thereof as a HCV polymerase inhibitor” (priority 2006, dated 2011).
